US20230203081A1, “LINCOSAMIDE ANTIBIOTICS AND USES THEREOF” (President and Fellows of Harvard College, priority 2020, published 2023)

Legend:
Assay type in all cases: cell-based
E. coli ΔTolC = assay: microbe, parasite or virus in culture; settings: E. coli HAV#038; ΔTolC
In short: (§1)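 Isolates other than streptococci and anaerobes, which had their own procedures, were grown overnight at 35° C on tryptic soy agar with 5% sheep blood. Suspensions were then diluted to a final inoculum of 5×10^5 CFU/mL in broth microdilution wells.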

[1] = test system: broad panel of different clinical isolates; assay: organism not typed
In short: as §1

E. coli armA = assay: microbe, parasite or virus in culture; settings: E. coli HAV#056; Clinical, armA
In short: as §1

E. coli ATCC 25922 = assay: MIC (broth microdilution or agar dilution, CLSI); settings: E. coli HAV#006, ATCC 25922
In short: as §1

E. faecalis ATCC 29212 = assay: MIC (broth microdilution or agar dilution, CLSI); settings: E. faecalis HAV#005, ATCC 29212
In short: as §1

S. aureus hVISA = assay: MIC (broth microdilution or agar dilution, CLSI); settings: S. aureus HAV#204, hVISA
In short: as §1

S. aureus ATCC 29213 = assay: MIC (broth microdilution or agar dilution, CLSI); settings: S. aureus HAV#001, ATCC 29213, MP-549
In short: as §1

K. oxytoca Clinical = assay: MIC (broth microdilution or agar dilution, CLSI); settings: K. oxytoca HAV#450; Clinical
In short: as §1

S. aureus ATCC 700699 = assay: MIC (broth microdilution or agar dilution, CLSI); settings: S. aureus HAV#202, ATCC 700699 (VISA)
In short: as §1

S. pyogenes ATCC 19615 = assay: MIC (broth microdilution or agar dilution, CLSI); settings: S. pyogenes HAV#004, ATCC 19615
In short: as §1

[2] = test system: S. pneumoniae MMX 3028 cErmB; assay: MIC (broth microdilution or agar dilution, CLSI); settings: S. pneumoniae HAV#033; MMX 3028, cErmB
In short: as §1

[3] = test system: S. pneumoniae MMX 3031 cMefA; assay: MIC (broth microdilution or agar dilution, CLSI); settings: S. pneumoniae HAV#034; MMX 3031, cMefA
In short: as §1

E. coli LptD = assay: MIC (broth microdilution or agar dilution, CLSI); settings: E. coli HAV#040; LptD
In short: as §1

S. pneumoniae ATCC 6303 = assay: MIC (broth microdilution or agar dilution, CLSI); settings: S. pneumoniae HAV#351, ATCC 6303
In short: as §1

S. aureus MMX 3035 cErmA = assay: MIC (broth microdilution or agar dilution, CLSI); settings: S. aureus HAV#031, MMX 3035; cErmA
In short: as §1

[4] = test system: S. aureus ATCC BAA-1707 (MRSA); assay: MIC (broth microdilution or agar dilution, CLSI); settings: S. aureus HAV#016, ATCC BAA-1707; MRSA
In short: as §1

[5] = test system: S. pyogenes MMX 946; cErmB; assay: MIC (broth microdilution or agar dilution, CLSI); settings: S. pyogenes HAV#035, MMX 946; cErmB, mac-resistant
In short: as §1

K. pneumoniae ATCC 10031 = assay: MIC (broth microdilution or agar dilution, CLSI); settings: K. pneumoniae HAV#008, ATCC 10031
In short: as §1

[6] = test system: E. faecalis MMX 847; cErmB; assay: MIC (broth microdilution or agar dilution, CLSI); settings: E. faecalis HAV#036, MMX 847; mac-resistant, cErmB
In short: as §1

S. pneumoniae ATCC 49619 = assay: MIC (broth microdilution or agar dilution, CLSI); settings: S. pneumoniae HAV#003, ATCC 49619
In short: as §1

In the case of Gentamicin, the MIC (E. coli ΔTolC) is reported as 1 µg/mL, the MIC ([1]; A. baumannii HAV#651, Clinical) is reported as 2 µg/mL and the MIC ([1]; A. baumannii HAV#652 Clinical) is reported as 16 µg/mL. For the same substance, the MIC ([1]; A. baumannii HAV#653, Clinical) was 0.5 µg/mL, the MIC ([1]; A. baumannii HAV#654, Clinical) was 2 µg/mL and the MIC ([1]; A. baumannii HAV#655, Clinical) was 2 µg/mL. It also gave an MIC ([1]; A. baumannii HAV#656, Clinical) of 4 µg/mL, an MIC ([1]; A. baumannii HAV#657, Clinical) of 4 µg/mL and an MIC ([1]; A. baumannii HAV#658, Clinical) of 1 µg/mL. It also gave an MIC ([1]; A. baumannii HAV#659, Clinical) of 32 µg/mL, an MIC ([1]; A. baumannii HAV#660, Clinical) of 32 µg/mL and an MIC ([1]; A. baumannii HAV#661, Clinical) of 1 µg/mL. It also gave an MIC ([1]; A. baumannii HAV#662, Clinical) of 4 µg/mL, an MIC ([1]; A. baumannii HAV#663, Clinical) of 0.5 µg/mL and an MIC ([1]; A. baumannii HAV#664, Carbapenem R) of over 128 µg/mL. For the same substance, the MIC ([1]; E. coli HAV#501, Clinical) was 2 µg/mL, the MIC ([1]; E. coli HAV#503, Clinical) was 4 µg/mL and the MIC ([1]; E. coli HAV#511, Clinical) was 16 µg/mL. It also gave an MIC ([1]; E. coli HAV#512, Clinical) of 2 µg/mL, an MIC ([1]; E. coli HAV#513, Clinical) of 2 µg/mL and an MIC ([1]; E. coli HAV#514, Clinical) of 1 µg/mL. The MIC ([1]; E. coli HAV#516, ESBL-producing) was 2 µg/mL, the MIC ([1]; E. faecalis HAV#251, Clinical VRE) was 16 µg/mL and the MIC ([1]; E. faecalis HAV#606, Clinical, VRE) was over 256 µg/mL. The MIC ([1]; E. faecalis HAV#607, Clinical) was over 256 µg/mL, the MIC ([1]; E. faecalis HAV#608, Clinical) was over 256 µg/mL and the MIC ([1]; E. faecalis HAV#609, Clinical) was over 256 µg/mL. For the same substance, the MIC ([1]; E. faecalis HAV#610, Clinical) was over 256 µg/mL, the MIC ([1]; E. faecalis HAV#611, Line R & Vanco R) was over 128 µg/mL and the MIC ([1]; E. faecalis HAV#612, Line R) was over 128 µg/mL. For the same substance, the MIC ([1]; E. faecium HAV#317, Clinical) was 16 µg/mL, the MIC ([1]; E. faecium HAV#318, VanA, VRE) was 8 µg/mL and the MIC ([1]; E. faecium HAV#324, Clinical) was over 256 µg/mL. The MIC ([1]; E. faecium HAV#327, Clinical) was 8 µg/mL, the MIC ([1]; E. faecium HAV#328, Clinical) was over 256 µg/mL and the MIC ([1]; E. faecium HAV#329, Clinical) was 4 µg/mL. The MIC ([1]; H. influenzae HAV#376, ATCC-9007) was 4 µg/mL, the MIC ([1]; K. pneumoniae HAV#041, Clinical, KPC) was 8 µg/mL and the MIC ([1]; K. pneumoniae HAV#404, Clinical) was 0.5 µg/mL. The MIC ([1]; K. pneumoniae HAV#405, Clinical) was 0.5 µg/mL, the MIC ([1]; K. pneumoniae HAV#406, Clinical) was 1 µg/mL and the MIC ([1]; K. pneumoniae HAV#407, Clinical) was 0.5 µg/mL. For the same substance, the MIC ([1]; K. pneumoniae HAV#408, Clinical) was 2 µg/mL, the MIC ([1]; K. pneumoniae HAV#409, ESBL-producing) was 0.5 µg/mL and the MIC ([1]; S. aureus HAV#017, MRSA Col(Colindale, England)) was 0.5 µg/mL. The MIC ([1]; S. aureus HAV#051, mecA, norA, spcl, ermA, aad1, aac6′-aph2″) was 2 µg/mL, the MIC ([1]; S. aureus HAV#052, mecA, norA, fosB, blaZ) was 1 µg/mL and the MIC ([1]; S. aureus HAV#053 mecA, norA, fosB) was 1 µg/mL. It also gave an MIC ([1]; S. aureus HAV#054, mecA, norA, spcl, aad1, fosB, ermA, aac6′-aph2″, blaZ) of 128 µg/mL, an MIC ([1]; S. aureus HAV#203, Clinical (VISA)) of over 64 µg/mL and an MIC ([1]; S. aureus HAV#216, Clinical, cfr) of 8 µg/mL. For the same substance, the MIC ([1]; S. aureus HAV#217, cfr) was 4 µg/mL, the MIC ([1]; S. epidermidis HAV# 275 Clinical, cfr) was over 64 µg/mL and the MIC ([1]; S. epidermidis HAV# 276, cfr) was over 64 µg/mL. For the same substance, the MIC ([1]; S. haemolyticus HAV#252, Line R & Methicillin R) was over 128 µg/mL, the MIC (E. coli armA) was over 256 µg/mL and the MIC (E. coli ATCC 25922) was 2 µg/mL. The MIC (E. faecalis ATCC 29212) was 16 µg/mL, the MIC (S. aureus hVISA) was over 64 µg/mL and the MIC (S. aureus ATCC 29213) was 1 µg/mL. The MIC (K. oxytoca Clinical) was 4 µg/mL, the MIC (S. aureus ATCC 700699) was over 64 µg/mL and the MIC (S. pyogenes ATCC 19615) was 8 µg/mL. The MIC [2] was 4 µg/mL, the MIC [3] was 8 µg/mL and the MIC (E. coli LptD) was 1 µg/mL. For the same substance, the MIC (S. pneumoniae ATCC 6303) was 32 µg/mL, the MIC (S. aureus MMX 3035 cErmA) was 1 µg/mL and the MIC [4] was 1 µg/mL. The MIC [5] was 16 µg/mL, the MIC (K. pneumoniae ATCC 10031) was 0.25 µg/mL and the MIC [6] was over 64 µg/mL. The MIC (S. pneumoniae ATCC 49619) was 16 µg/mL.
